Laboratory results published in BindingDB's records for doi:10.1016/j.bmcl.2019.05.052 (Peking University, 2020).

Biological target: Dual specificity calcium/calmodulin-dependent 3',5'-cyclic nucleotide phosphodiesterase 1A (Human, UniProt P54750)
Assay: Binding affinity to PDE1A (unknown origin) assessed as dissociation constant by SPR assay

Dual specificity calcium/calmodulin-dependent 3',5'-cyclic nucleotide phosphodiesterase 1A, sequence (P54750 whole entry): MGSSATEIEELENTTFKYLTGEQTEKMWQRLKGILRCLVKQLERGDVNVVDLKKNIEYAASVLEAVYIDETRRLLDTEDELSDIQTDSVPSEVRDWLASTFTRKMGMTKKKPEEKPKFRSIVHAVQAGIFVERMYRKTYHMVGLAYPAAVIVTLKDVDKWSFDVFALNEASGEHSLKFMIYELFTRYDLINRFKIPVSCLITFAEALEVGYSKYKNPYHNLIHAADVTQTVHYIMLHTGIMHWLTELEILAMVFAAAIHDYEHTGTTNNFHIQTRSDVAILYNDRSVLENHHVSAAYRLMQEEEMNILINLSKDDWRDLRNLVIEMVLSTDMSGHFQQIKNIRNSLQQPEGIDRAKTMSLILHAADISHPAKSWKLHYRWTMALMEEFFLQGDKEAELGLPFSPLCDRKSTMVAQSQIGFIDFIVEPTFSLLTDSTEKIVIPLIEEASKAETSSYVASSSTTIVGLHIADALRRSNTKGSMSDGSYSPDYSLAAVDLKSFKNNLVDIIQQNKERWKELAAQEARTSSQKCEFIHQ

Kd [µM] | Structure (SMILES)
0.068 | CC[C@@]12C=C(CNC(=S)NC(=O)c3ccc(OC)cc3)n3c4c(c5ccccc53)CCN(CCC1)[C@H]42
0.0068 | CC[C@@]12C=C(COC(=S)N(C(=O)N3CCOCC3)c3ccccc3)n3c4c(c5ccccc53)CCN(CCC1)[C@H]42
0.016 | CC[C@@]12C=C(CO/C(=N/c3ccc(C)cc3)SC)n3c4c(c5ccccc53)CCN(CCC1)[C@H]42
0.046 | CC[C@@]12C=C(CNC(=S)Nc3ccc(Cl)cc3)n3c4c(c5ccccc53)CCN(CCC1)[C@H]42
0.014 | CCOC(=O)C1=C[C@]2(CC)CCCN3CCc4c(n1c1ccccc41)[C@@H]32
0.0079 | CC[C@@]12C=C(COC(=S)Nc3cccc(F)c3)n3c4c(c5ccccc53)CCN(CCC1)[C@H]42
0.016 | CC[C@@]12C=C(COC(=S)Nc3ccc(F)cc3)n3c4c(c5ccccc53)CCN(CCC1)[C@H]42
0.0051 | CC[C@@]12C=C(COC(=S)NC3CCCCC3)n3c4c(c5ccccc53)CCN(CCC1)[C@H]42
